From ChEMBL document CHEMBL4359931, “Synthesis, biological evaluation and molecular docking studies of new amides of 4-bromothiocolchicine as anticancer agents” (Bioorg Med Chem, 2019)
Active and inactive are the calls of the source. No cut-off for these calls is given here.

Tests used:
[1] = Selectivity index, ratio of IC50 of mouse BALB/3T3 cells to IC50 of human ALL5 cells
[2] = Selectivity index, ratio of IC50 of mouse BALB/3T3 cells to IC50 of human A549 cells
Homo sapiens [3] = species: Homo sapiens; assay: Induction of cell cycle arrest in human ALL5 cells assessed as increase in 4 N DNA at 5 times of antiproliferative IC50 incubated for 48 hrs by propidium iodide based flow cytometry; type: functional
Homo sapiens [4] = species: Homo sapiens; assay: Induction of cell cycle arrest in human ALL5 cells assessed as increase in 4 N DNA at 5 times of antiproliferative IC50 incubated for 24 hrs by propidium iodide based flow cytometry; type: functional
MCF7 [5] = assay: Antiproliferative activity against human MCF7 cells assessed as reduction in cell viability incubated for 120 hrs by MTT assay; type: functional, cell-based; settings: MCF7, 120 h
A549 = assay: Antiproliferative activity against human A549 cells assessed as reduction in cell viability incubated for 120 hrs by MTT assay; type: functional, cell-based; settings: A549, 120 h
[6] = Selectivity index, ratio of IC50 of mouse BALB/3T3 cells to IC50 of human LoVo/DX cells; type: toxicity; settings: BALB/3T3 cells versus LoVo/DX cells, read-out: Ratio IC50
[7] = Selectivity index, ratio of IC50 of mouse BALB/3T3 cells to IC50 of human LoVo cells; type: toxicity; settings: BALB/3T3 cells versus LoVo cells, read-out: Ratio IC50
Homo sapiens [8] = species: Homo sapiens; assay: Induction of cell death in human ALL5 cells assessed as decrease in 4 N DNA at 5 times of antiproliferative IC50 incubated for 72 hrs by propidium iodide based flow cytometry; type: functional
[9] = Selectivity index, ratio of IC50 of mouse BALB/3T3 cells to IC50 of human MCF7 cells; type: toxicity; settings: BALB/3T3 cells versus MCF7 cells, read-out: Ratio IC50
[10] = Antiproliferative activity against human LoVo/DX cells assessed as reduction in cell viability incubated for 120 hrs by MTT assay; type: functional, cell-based
BALB/3T3 = assay: Antiproliferative activity against mouse BALB/3T3 cells assessed as reduction in cell viability incubated for 120 hrs by MTT assay; type: cell-based; settings: BALB/3T3, 120 h
LoVo = assay: Antiproliferative activity against human LoVo cells assessed as reduction in cell viability incubated for 120 hrs by MTT assay; type: functional, cell-based
[11] = Resistance index, ratio of IC50 of human LoVo/DX cells to IC50 of human LoVo cells; type: functional
[12] = Antiproliferative activity against human ALL5 cells assessed as reduction in cell viability incubated for 120 hrs by MTT assay; type: functional, cell-based; settings: ALL5, 120 h
[13] = Cell cycle arrest in human ALL5 cells assessed as accumulation in subG1 phase at 5 times of antiproliferative IC50 incubated for 48 hrs by propidium iodide based flow cytometry (reference value: 11 %); type: functional
MCF7 [14] = assay: Cell cycle arrest in human MCF7 cells assessed as accumulation in G2 phase at 5 times of antiproliferative IC50 incubated for 72 hrs by propidium iodide based flow cytometry (reference value: 18.6 %); type: functional
MCF7 [15] = assay: Cell cycle arrest in human MCF7 cells assessed as accumulation in subG1 phase at 5 times of antiproliferative IC50 incubated for 48 hrs by propidium iodide based flow cytometry (reference value: 9.19 %); type: functional
[16] = Cell cycle arrest in human ALL5 cells assessed as accumulation in subG1 phase at 5 times of antiproliferative IC50 incubated for 72 hrs by propidium iodide based flow cytometry (reference value: 15.5 %); type: functional
MCF7 [17] = assay: Cell cycle arrest in human MCF7 cells assessed as accumulation in S phase at 5 times of antiproliferative IC50 incubated for 48 hrs by propidium iodide based flow cytometry (reference value: 34 %); type: functional
[18] = Cell cycle arrest in human ALL5 cells assessed as accumulation in subG1 phase at 5 times of antiproliferative IC50 incubated for 24 hrs by propidium iodide based flow cytometry (reference value: 10.5 %); type: functional
MCF7 [19] = assay: Cell cycle arrest in human MCF7 cells assessed as accumulation in G1 phase at 5 times of antiproliferative IC50 incubated for 72 hrs by propidium iodide based flow cytometry (reference value: 58 %); type: functional
[20] = Cell cycle arrest in human ALL5 cells assessed as accumulation in G2 phase at 5 times of antiproliferative IC50 incubated for 24 hrs by propidium iodide based flow cytometry (reference value: 10.6 %); type: functional
[21] = Cell cycle arrest in human ALL5 cells assessed as accumulation in G2 phase at 5 times of antiproliferative IC50 incubated for 48 hrs by propidium iodide based flow cytometry (reference value: 11.2 %); type: functional
MCF7 [22] = assay: Cell cycle arrest in human MCF7 cells assessed as accumulation in S phase at 5 times of antiproliferative IC50 incubated for 24 hrs by propidium iodide based flow cytometry (reference value: 19.9 %); type: functional
MCF7 [23] = assay: Cell cycle arrest in human MCF7 cells assessed as accumulation in G1 phase at 5 times of antiproliferative IC50 incubated for 24 hrs by propidium iodide based flow cytometry (reference value: 49.9 %); type: functional
[24] = Cell cycle arrest in human ALL5 cells assessed as accumulation in S phase at 5 times of antiproliferative IC50 incubated for 72 hrs by propidium iodide based flow cytometry (reference value: 13.5 %); type: functional
MCF7 [25] = assay: Cell cycle arrest in human MCF7 cells assessed as accumulation in G1 phase at 5 times of antiproliferative IC50 incubated for 48 hrs by propidium iodide based flow cytometry (reference value: 40.8 %); type: functional
MCF7 [26] = assay: Cell cycle arrest in human MCF7 cells assessed as accumulation in G2 phase at 5 times of antiproliferative IC50 incubated for 48 hrs by propidium iodide based flow cytometry (reference value: 16 %); type: functional
MCF7 [27] = assay: Cell cycle arrest in human MCF7 cells assessed as accumulation in S phase at 5 times of antiproliferative IC50 incubated for 72 hrs by propidium iodide based flow cytometry (reference value: 19.8 %); type: functional
[28] = Cell cycle arrest in human ALL5 cells assessed as accumulation in G2 phase at 5 times of antiproliferative IC50 incubated for 72 hrs by propidium iodide based flow cytometry (reference value: 11.3 %); type: functional
[29] = Cell cycle arrest in human ALL5 cells assessed as accumulation in G1 phase at 5 times of antiproliferative IC50 incubated for 48 hrs by propidium iodide based flow cytometry (reference value: 67.4 %); type: functional
MCF7 [30] = assay: Cell cycle arrest in human MCF7 cells assessed as accumulation in G2 phase at 5 times of antiproliferative IC50 incubated for 24 hrs by propidium iodide based flow cytometry (reference value: 22.4 %); type: functional
MCF7 [31] = assay: Cell cycle arrest in human MCF7 cells assessed as accumulation in subG1 phase at 5 times of antiproliferative IC50 incubated for 72 hrs by propidium iodide based flow cytometry (reference value: 3.59 %); type: functional
[32] = Cell cycle arrest in human ALL5 cells assessed as accumulation in S phase at 5 times of antiproliferative IC50 incubated for 48 hrs by propidium iodide based flow cytometry (reference value: 10.3 %); type: functional
MCF7 [33] = assay: Cell cycle arrest in human MCF7 cells assessed as accumulation in subG1 phase at 5 times of antiproliferative IC50 incubated for 24 hrs by propidium iodide based flow cytometry (reference value: 7.79 %); type: functional
[34] = Cell cycle arrest in human ALL5 cells assessed as accumulation in G1 phase at 5 times of antiproliferative IC50 incubated for 72 hrs by propidium iodide based flow cytometry (reference value: 59.7 %); type: functional
[35] = Cell cycle arrest in human ALL5 cells assessed as accumulation in S phase at 5 times of antiproliferative IC50 incubated for 24 hrs by propidium iodide based flow cytometry (reference value: […]); type: functional
[36] = Cell cycle arrest in human ALL5 cells assessed as accumulation in G1 phase at 5 times of antiproliferative IC50 incubated for 24 hrs by propidium iodide based flow cytometry (reference value: 68.1 %); type: functional

Row | Compound | Ratio IC50 [1] | Ratio IC50 [2] | Activity (Homo sapiens [3]) | Activity (Homo sapiens [4]) | IC50 (MCF7 [5]) | IC50 (A549) | selectivity ratio [6] | selectivity ratio [7] | Activity (Homo sapiens [8]) | selectivity ratio [9] | IC50 [10] | IC50 (BALB/3T3) | IC50 (LoVo) | Ratio IC50 [11] | IC50 [12] | Activity [13] | Activity (MCF7 [14]) | Activity (MCF7 [15]) | Activity [16] | Activity (MCF7 [17]) | other results
1 | COc1c(Br)c2c(c(OC)c1OC)-c1ccc(SC)c(=O)cc1[C@@H](N)CC2 | 13.8 | 11 | Active | Active | 178 nM | 115 nM | 1.8 | 10.1 | Active | 7.1 | 700 nM | 1260 nM | 125 nM | 5.6 | 91.4 nM |  |  |  |  |  | 
2 | COc1c(Br)c2c(c(OC)c1OC)-c1ccc(SC)c(=O)cc1[C@@H](NC(C)=O)CC2 | 19.1 | 10.2 |  | Active | 14.8 nM | 10.1 nM | 0.8 | 7.6 | Active | 7 | 135 nM | 103 nM | 13.6 nM | 9.6 | 5.4 nM | 30.5% | 64.5% | 12% | 37.2% | 7.31% | Activity [18]: 14.3%; Activity (MCF7 [19]): 15.5%; Activity [20]: 17.7%; Activity [21]: 16.6%; Activity (MCF7 [22]): 6.62%; Activity (MCF7 [23]): 13%; Activity [24]: 24.2%; Activity (MCF7 [25]): 14.6%; Activity (MCF7 [26]): 66%; Activity (MCF7 [27]): 6.88%; Activity [28]: 9.83%; Activity [29]: 33.4%; Activity (MCF7 [30]): 72.4%; Activity (MCF7 [31]): 13.1%; Activity [32]: 19.4%; Activity (MCF7 [33]): 7.93%; Activity [34]: 28.8%; Activity [35]: 14.8%; Activity [36]: 53.2%
3 | COc1c(Br)c2c(c(OC)c1OC)-c1ccc(OC)c(=O)cc1[C@@H](NC(C)=O)CC2 | 24.1 | 1.4 | Active |  | 26.6 nM | 104 nM | 0.1 | 1.7 | Active | 5.3 | 1550 nM | 142 nM | 83.6 nM | 18.7 | 5.9 nM | 26.4% | 56.1% | 12.1% | 39.7% | 14.6% | Activity [18]: 17.1%; Activity (MCF7 [19]): 13.2%; Activity [20]: 16.9%; Activity [21]: 18.6%; Activity (MCF7 [22]): 7.97%; Activity (MCF7 [23]): 9.79%; Activity [24]: 22.2%; Activity (MCF7 [25]): 12.5%; Activity (MCF7 [26]): 60.8%; Activity (MCF7 [27]): 14.3%; Activity [28]: 11.2%; Activity [29]: 35%; Activity (MCF7 [30]): 74.9%; Activity (MCF7 [31]): 16.4%; Activity [32]: 20%; Activity (MCF7 [33]): 7.37%; Activity [34]: 26.9%; Activity [35]: 14.8%; Activity [36]: 51.2%
4 | COc1c(Br)c2c(c(OC)c1OC)-c1ccc(SC)c(=O)cc1[C@@H](NC(=O)CCCCl)CC2 | 4.6 | 1.2 | Active | Active | 48.9 nM | 53.4 nM | 0.2 | 5.3 | Active | 1.3 | 266 nM | 64.1 nM | 12 nM | 22.2 | 14 nM |  |  |  |  |  | 
5 | CCCCCCCCCC(=O)N[C@H]1CCc2c(Br)c(OC)c(OC)c(OC)c2-c2ccc(SC)c(=O)cc21 | 0.5 | 0.1 |  |  | 957 nM | 881 nM | 0.1 | 0.2 |  | 0.1 | 867 nM | 98.4 nM | 482 nM | 1.8 | 196 nM |  |  |  |  |  | 
6 | CCN(CC)C(=O)N[C@H]1CCc2c(Br)c(OC)c(OC)c(OC)c2-c2ccc(SC)c(=O)cc21 | 1.5 | 0.8 |  |  | 97.3 nM | 99.1 nM | 0.1 | 1.5 |  | 0.8 | 621 nM | 80.4 nM | 53.8 nM | 11.6 | 55.3 nM |  |  |  |  |  | 
7 | COc1c(Br)c2c(c(OC)c1OC)-c1ccc(SC)c(=O)cc1[C@@H](NC(=O)c1ccccc1)CC2 | 3 | 1.8 |  | Active | 11.4 nM | 9.6 nM | 0.4 | 2.6 | Active | 1.5 | 47.9 nM | 17.4 nM | 6.6 nM | 7.3 | 5.8 nM | 24.7% | 61.6% | 10% | 50.6% | 7.39% | Activity [18]: 16.5%; Activity (MCF7 [19]): 13%; Activity [20]: 16.9%; Activity [21]: 25.4%; Activity (MCF7 [22]): 7.85%; Activity (MCF7 [23]): 11%; Activity [24]: 19.7%; Activity (MCF7 [25]): 14.3%; Activity (MCF7 [26]): 68.3%; Activity (MCF7 [27]): 9.81%; Activity [28]: 7.51%; Activity [29]: 33.8%; Activity (MCF7 [30]): 75%; Activity (MCF7 [31]): 15.6%; Activity [32]: 16%; Activity (MCF7 [33]): 6.17%; Activity [34]: 22.1%; Activity [35]: 14.7%; Activity [36]: 52%
